What is called IC50 is the concentration at which inhibition is half-maximal.

This is an account of results in ChEMBL document CHEMBL6114992, “Design, synthesis, biological evaluation, and mechanism of action of new pyrazines as anticancer agents in vitro and in vivo” (Bioorg Med Chem, 2025).

Active and inactive are the calls of the source. The calls are words filed in the database; no cut-off is given here.

Test [1] relates to U-937. Description: Induction of apoptosis in human U-937 cells assessed as early apoptotic cells at 0.5 uM incubated for 48 hrs by Annexin V-FITC/PI staining based flow cytometry (reference value: 2.72 %). In kind it is functional.
Test [2] concerns U-937. As to the kind of experiment: Induction of apoptosis in human U-937 cells assessed as late apoptotic cells at 0.5 uM incubated for 48 hrs by Annexin V-FITC/PI staining based flow cytometry (reference value: 1.96 %). In kind it is functional.
Test [3] has as its target Signal transducer and activator of transcription 3 (Homo sapiens) (UniProt P40763). Description: Inhibition of STAT3 phosphorylation in human U-937 cells at 1 to 5 uM incubated for 48 hrs by Western blot analysis. In kind it is cell-based. The conditions noted are these: dose 1-5 µM. On the technique in general: In western blotting, separated proteins are transferred to a membrane and probed.

The test system of test [4] is U-937. As to the kind of experiment: Induction of apoptosis in human U-937 cells assessed as necrotic cells at 1 uM incubated for 48 hrs by Annexin V-FITC/PI staining based flow cytometry (reference value: 2.03 %). The test is classed as functional. (In general: Flow cytometry measures light scatter and fluorescence of single cells or particles in a stream.)
The test system of test [5] is U-937. Description: Downregulation of XIAP expression in human U-937 cells incubated for 48 hrs by Western blot analysis. In kind it is functional, cell-based.
Test [6] concerns THP-1. Description: Antiproliferative activity against human THP-1 cells assessed as inhibition of cell growth incubated for 72 hrs by MTT assay. The test is classed as functional, cell-based. The conditions noted are these: THP-1, 72 h.
In test [7] the test system is U-937. Description: Downregulation of c-Myc expression in human U-937 cells incubated for 48 hrs by Western blot analysis. In kind it is functional, cell-based. The note with it: dose 1-5 µM.
The test system of test [8] is U-937. Description: Upregulation of p21 expression in human U-937 cells incubated for 48 hrs by Western blot analysis. The test is classed as functional, cell-based.
For test [9], the system named is U-937. Description: Downregulation of Bcl-XL expression in human U-937 cells incubated for 48 hrs by Western blot analysis. In kind it is functional, cell-based. The note with it: dose 1-5 µM.
In test [10] the test system is KG-1. Description: Antiproliferative activity against human KG-1 cells assessed as inhibition of cell growth incubated for 72 hrs by MTT assay. In kind it is functional, cell-based. The note with it: KG-1, 72 h. For orientation: Formazan colour is commonly taken as a measure of viable cells.
Test [11] concerns U-937. Description: Induction of apoptosis in human U-937 cells assessed as viable cells at 2.5 uM incubated for 48 hrs by Annexin V-FITC/PI staining based flow cytometry (reference value: 93.30 %). In kind it is functional. The note with it: read-out: Activity.
Test [12] relates to U-937. As to the kind of experiment: Induction of apoptosis in human U-937 cells assessed as viable cells at 1 uM incubated for 48 hrs by Annexin V-FITC/PI staining based flow cytometry (reference value: 93.30 %). The note with it: read-out: Activity. The test is classed as functional.
The subject of test [13] is U-937. As to the kind of experiment: Induction of apoptosis in human U-937 cells assessed as late apoptotic cells at 2.5 uM incubated for 48 hrs by Annexin V-FITC/PI staining based flow cytometry (reference value: 1.96 %). In kind it is functional.
In test [14] the test system is U-937. As to the kind of experiment: Induction of apoptosis in human U-937 cells assessed as late apoptotic cells at 1 uM incubated for 48 hrs by Annexin V-FITC/PI staining based flow cytometry (reference value: 1.96 %). The test is classed as functional.
Test [15] deals with U-937. As to the kind of experiment: Induction of apoptosis in human U-937 cells assessed as viable cells at 0.5 uM incubated for 48 hrs by Annexin V-FITC/PI staining based flow cytometry (reference value: 93.30 %). In kind it is functional. The conditions noted are these: read-out: Activity.
The subject of test [16] is SK-OV-3. Description: Antiproliferative activity against human SK-OV-3 cells assessed as inhibition of cell growth incubated for 72 hrs by MTT assay. The test is classed as functional, cell-based. The note with it: SK-OV-3, 72 h.
The subject of test [17] is U-937. As to the kind of experiment: Induction of apoptosis in human U-937 cells assessed as change in mitochondrial membrane potential at 1 uM incubated for 48 hrs by JC-1 staining based flow cytometry (reference value: 2.20 %). In kind it is functional.
A short description of test [18]: Antiproliferative activity against human SK-OV-3/Taxol cells assessed as inhibition of cell growth incubated for 72 hrs by MTT assay. In kind it is functional, cell-based. The conditions noted are these: SK-OV-3, 72 h.
Test [19] concerns U-937. As to the kind of experiment: Induction of apoptosis in human U-937 cells assessed as early apoptotic cells at 1 uM incubated for 48 hrs by Annexin V-FITC/PI staining based flow cytometry (reference value: 2.72 %). In kind it is functional.
The test system of test [20] is U-937. Description: Downregulation of Bcl-2 expression in human U-937 cells incubated for 48 hrs by Western blot analysis. The test is classed as functional, cell-based.
For test [21], the system named is U-937. Description: Induction of apoptosis in human U-937 cells assessed as necrotic cells at 0.5 uM incubated for 48 hrs by Annexin V-FITC/PI staining based flow cytometry (reference value: 2.03 %). In kind it is functional.
For test [22], the system named is U-937. As to the kind of experiment: Antiproliferative activity against human U-937 cells assessed as inhibition of cell growth incubated for 72 hrs by MTT assay. The test is classed as functional, cell-based. The conditions noted are these: U-937, 72 h.
Test [23] concerns U-937. Description: Downregulation of YAP1 expression in human U-937 cells incubated for 48 hrs by Western blot analysis. The test is classed as functional, cell-based. The note with it: dose 1-5 µM.
The test system of test [24] is U-937. As to the kind of experiment: Induction of apoptosis in human U-937 cells assessed as early apoptotic cells at 2.5 uM incubated for 48 hrs by Annexin V-FITC/PI staining based flow cytometry (reference value: 2.72 %). In kind it is functional.
In test [25] the test system is U-937. Description: Induction of apoptosis in human U-937 cells assessed as change in mitochondrial membrane potential at 2.5 uM incubated for 48 hrs by JC-1 staining based flow cytometry (reference value: 2.20 %). In kind it is functional.
For test [26], the system named is U-937. As to the kind of experiment: Induction of apoptosis in human U-937 cells assessed as change in mitochondrial membrane potential at 5 uM incubated for 48 hrs by JC-1 staining based flow cytometry (reference value: 2.20 %). The test is classed as functional.
Test [27] deals with U-937. As to the kind of experiment: Induction of apoptosis in human U-937 cells assessed as necrotic cells at 2.5 uM incubated for 48 hrs by Annexin V-FITC/PI staining based flow cytometry (reference value: 2.03 %). In kind it is functional.

Sequence of Signal transducer and activator of transcription 3 (Homo sapiens) (P40763 whole entry): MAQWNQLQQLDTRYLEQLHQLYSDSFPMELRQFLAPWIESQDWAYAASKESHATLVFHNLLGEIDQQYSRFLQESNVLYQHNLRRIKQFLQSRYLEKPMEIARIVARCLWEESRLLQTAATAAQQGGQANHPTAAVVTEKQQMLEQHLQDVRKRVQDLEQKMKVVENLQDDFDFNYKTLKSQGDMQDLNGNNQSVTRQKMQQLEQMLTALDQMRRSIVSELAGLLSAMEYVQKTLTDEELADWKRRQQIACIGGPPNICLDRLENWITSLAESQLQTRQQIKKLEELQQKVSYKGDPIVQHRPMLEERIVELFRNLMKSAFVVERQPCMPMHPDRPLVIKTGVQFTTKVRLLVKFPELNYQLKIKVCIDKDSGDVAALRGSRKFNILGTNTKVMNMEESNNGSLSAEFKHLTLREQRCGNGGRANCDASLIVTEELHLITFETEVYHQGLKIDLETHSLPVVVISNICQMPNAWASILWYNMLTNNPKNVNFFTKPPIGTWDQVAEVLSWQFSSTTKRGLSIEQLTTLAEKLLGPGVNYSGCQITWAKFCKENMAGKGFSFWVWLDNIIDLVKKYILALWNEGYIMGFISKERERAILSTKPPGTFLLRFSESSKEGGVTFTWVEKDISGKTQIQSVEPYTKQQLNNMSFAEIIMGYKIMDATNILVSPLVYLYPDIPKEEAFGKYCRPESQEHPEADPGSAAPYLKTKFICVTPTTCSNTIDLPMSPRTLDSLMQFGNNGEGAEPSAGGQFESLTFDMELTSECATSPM

Take `CCc1nccnc1C(=O)/C=C/c1ccc(C#N)cc1`: the Activity in [1] is 8.17%; in test [2], 6.11%; in [4], 2.6%; in [5], “Dose-dependent-effect”; in test [7], “Dose-dependent-effect”; in test [8] it was “Dose-dependent-effect”. Besides, the Activity entry in test [9] is “Dose-dependent-effect”; in test [13], 7.46%; in [14] it was 6.74%; in test [17] it was 3.69%; in test [19] it was 10.41%; in test [20], “Dose-dependent-effect”. In addition, the Activity is 2.84% in test [21]; “Dose-dependent-effect” in test [23]; 14.57% in test [24]; 6.16% in test [25]; 14.12% in test [26]; 3.82% in test [27]. For the same compound, the inhibition entry in test [3] was “Active”. In addition, the half-maximal inhibitory concentration (IC50) in test [6] was determined as 0.64 µM; in test [10] it was 3.98 µM; in [16], 4.71 µM; in test [18] it was 5.39 µM; in [22], 0.18 µM. Moreover, the viability at 2.5 µM in test [11] is 74.2%. For the same compound, in test [12], the viability at 1 µM came out at 80.3%. Further, in [15], the viability at 0.5 µM is 82.9%.
Take `Cc1nccnc1C(=O)/C=C/c1ccc(F)cc1`: the IC50 in [6] came to 30.2 µM; in test [10] it was 21.7 µM; in test [16], 30.7 µM; in test [18], 29.2 µM; in [22], 26.1 µM.
In the case of `Cc1nccnc1C(=O)/C=C/c1ccc2c(c1)OC(F)(F)O2`, the IC50 in test [6] was 5.89 µM; in [10], 6.52 µM; in [16], 5.1 µM; in test [18], 6.11 µM; in test [22], 3.63 µM.
As for `CCc1nccnc1C(=O)/C=C/c1ccccc1[N+](=O)[O-]`, the half-maximal inhibitory concentration (IC50) in [6] came out at 1.5 µM; in test [10], 3.68 µM; in test [16], 2.49 µM; in [18] it was 4.12 µM; in test [22], 1.46 µM.
As to `O=C(/C=C/c1cccc([N+](=O)[O-])c1)c1cnccn1`, the IC50 in test [6] is 5.29 µM; in [10], 10.3 µM; in test [16], more than 50 µM; in test [18], more than 50 µM; in test [22], 8 µM.
As for `CCc1nccnc1C(=O)/C=C/c1ccc(C)cc1`, the IC50 in test [6] came out at 10.5 µM; in test [10], 10 µM; in test [16] it was 6.26 µM; in [18] it was 7.33 µM; in [22] it was 9.32 µM.
In the case of `O=C(/C=C/c1ccccc1)c1cnccn1`, the IC50 in test [6] was 15.3 µM; in [10], 10.6 µM; in [16] it was more than 50 µM; in [18] it was more than 50 µM; in [22], 8.05 µM.
`O=C(/C=C/c1cc2c(cc1[N+](=O)[O-])OCO2)c1cnccn1`: the half-maximal inhibitory concentration (IC50) came out at 2.02 µM in [6]; 11 µM in test [10]; 9.99 µM in [16]; 6.57 µM in [18]; 6.87 µM in [22].
As to `COc1ccc(/C=C/C(=O)c2cnccn2)cc1`, the concentration for half-maximal inhibition (IC50) was found to be 10.3 µM in test [6]; 8.71 µM in test [10]; 21.9 µM in test [16]; 21.1 µM in test [18]; 15.2 µM in [22].
`O=C(/C=C/c1ccc(C(F)(F)F)cc1)c1cnccn1`: the IC50 in test [6] stood at 8.3 µM; in test [10] it was 7.87 µM; in [16], 9.72 µM; in test [18] it was 10.4 µM; in test [22] it was 11.9 µM.
In the same order, the values of `CCc1nccnc1C(=O)/C=C/c1ccc(C(C)(C)C)cc1` are 10.2 µM, 22.5 µM, 11.2 µM, 12.2 µM and 15 µM.
Regarding `CCc1nccnc1C(=O)/C=C/c1ccc(-c2ccccc2)cc1`, the IC50 was found to be 9.14 µM in test [6]; 22.6 µM in [10]; 16.9 µM in test [16]; 16.4 µM in test [18]; 9.55 µM in test [22].
Take `Cc1nccnc1C(=O)/C=C/c1cccc(F)c1`: the IC50 stood at 2.12 µM in test [6]; 1.93 µM in test [10]; 4.39 µM in [16]; 5.33 µM in test [18]; 2.41 µM in test [22].
Turning to `Cc1nccnc1C(=O)/C=C/c1cccc([N+](=O)[O-])c1`, the IC50 in test [6] was 2.23 µM; in test [10], 4.76 µM; in test [16] it was 5.62 µM; in [18], 6.38 µM; in [22], 2.46 µM.
Consider `Cc1nccnc1C(=O)/C=C/c1ccc[nH]1`, for which the IC50 is 5.72 µM in test [6]; 7.15 µM in [10]; 4.81 µM in [16]; 5.38 µM in test [18]; 6.21 µM in test [22].
`Cc1nccnc1C(=O)/C=C/C=C/c1ccc(F)cc1`: the half-inhibitory concentration (IC50) in [6] was found to be 45.4 µM; in test [10], 27.4 µM; in [16], 10.8 µM; in test [18], 11.4 µM; in [22], 10.3 µM.
In the case of `COc1ccc(/C=C/C(=O)c2cnccn2)cc1OC`, the IC50 in test [6] is 6.55 µM; in [10], 4.84 µM; in test [16], more than 50 µM; in test [18], more than 50 µM; in test [22] it was 4.79 µM.
`CCc1nccnc1C(=O)/C=C/c1ccc2c(c1)OC(F)(F)O2`: the half-maximal inhibitory concentration (IC50) is 5.36 µM in [6]; 9.09 µM in test [10]; 3.74 µM in [16]; 3.72 µM in test [18]; 5.48 µM in test [22].
